Data taken from patent US20260022096A1, “NOVEL SULFONAMIDES AND THEIR USE AS NEUROPROTECTIVE AND/OR NEURORESTORATIVE AGENTS” (GENECODE, priority 2022, published 2026).

Target: T1, GFRα1-RET (Homo sapiens, UniProt P56159)
T1 construct: expressed in transfected cells; host or cells: MG87 murine fibroblasts, stably transfected
T1 sequence (P56159 25-429 limits assumed): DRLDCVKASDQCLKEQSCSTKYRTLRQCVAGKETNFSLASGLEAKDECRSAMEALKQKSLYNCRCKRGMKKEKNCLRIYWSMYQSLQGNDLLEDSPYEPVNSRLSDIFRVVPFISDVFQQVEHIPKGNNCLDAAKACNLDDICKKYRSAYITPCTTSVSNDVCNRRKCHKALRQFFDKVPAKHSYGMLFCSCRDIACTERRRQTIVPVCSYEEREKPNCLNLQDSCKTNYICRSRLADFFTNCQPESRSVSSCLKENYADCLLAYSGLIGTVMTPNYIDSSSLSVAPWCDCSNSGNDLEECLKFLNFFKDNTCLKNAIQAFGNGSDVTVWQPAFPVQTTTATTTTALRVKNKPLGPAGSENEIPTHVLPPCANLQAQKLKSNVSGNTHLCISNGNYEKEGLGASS
Assay: Elk1 reporter-gene (luciferase) assay in cells expressing GFRα1-RET
Format: cell-based
Conditions: MG87 murine fibroblasts stably transfected with PathDetect Elk-1, GFRα1 and RET, 6 concentrations, agonist/activator activity
Procedure: For ECso determination, a dose-response test was performed using 6 concentrations of each tested compound. Dose-response curves were fitted using the sigmoidal dose-response (variable slope) analysis in GraphPad Prism program (Graph Pad Inc) and ECso of agonist/activator activity was calculated. Dose-response experiments were all performed in duplicate, two times independently.

| SMILES | EC50 [nM] |
| --- | --- |
| COc1ccc(S(=O)(=O)N2CCC(c3cccc(-n4cccn4)c3)CC2)cc1N1[C@@H]2CC[C@H]1CN(C(=O)c1ccc(F)cc1Cl)C2 [compound 043, (2-chloro-4-fluoro-phenyl)-[(1S,5R)-8-[2-methoxy-5-[[4-(3-pyrazol-1-ylphenyl)-1-piperidyl]sulfonyl]phenyl]-3,8-diazabicyclo[3.2.1]octan-3-yl]methanone] | < 1000 |
| COc1ccc(S(=O)(=O)N2CCN(CCc3ccc(F)cc3)CC2)cc1N1[C@@H]2CC[C@H]1CN(C(=O)c1ccc(F)cc1Cl)C2 [compound 046, (2-chloro-4-fluoro-phenyl)-[(1S,5R)-8-[5-[4-[2-(4-fluorophenyl)ethyl]piperazin-1-yl]sulfonyl-2-methoxy-phenyl]-3,8-diazabicyclo[3.2.1]octan-3-yl]methanone] | < 1000 |
| COc1ccc(S(=O)(=O)N2CCN(CCc3ccc(Cl)cc3)CC2)cc1N1[C@@H]2CC[C@H]1CN(C(=O)c1ccc(F)cc1Cl)C2 [compound 048, (2-chloro-4-fluoro-phenyl)-[(1S,5R)-8-[5-[4-[2-(4-chlorophenyl)ethyl]piperazin-1-yl]sulfonyl-2-methoxy-phenyl]-3,8-diazabicyclo[3.2.1]octan-3-yl]methanone] | < 1000 |
| COc1ccc(S(=O)(=O)N2CCC(c3ccccc3)CC2)cc1N1[C@@H]2CC[C@H]1CN(C(=O)c1cc(F)c(F)cc1Cl)C2 [compound 049, (2-chloro-4,5-difluoro-phenyl)-[(1S,5R)-8-[2-methoxy-5-[(4-phenyl-1-piperidyl)sulfonyl]phenyl]-3,8-diazabicyclo[3.2.1]octan-3-yl]methanone] | < 1000 |
| COc1ccc(S(=O)(=O)N2CCC(CCc3ccccc3)CC2)cc1N1[C@@H]2CC[C@H]1CN(C(=O)c1cc(F)c(F)cc1Cl)C2 [compound 050, (2-chloro-4,5-difluoro-phenyl)-[(1S,5R)-8-[2-methoxy-5-[[4-(2-phenylethyl)-1-piperidyl]sulfonyl]phenyl]-3,8-diazabicyclo[3.2.1]octan-3-yl]methanone] | < 1000 |
| COc1ccc(S(=O)(=O)N2CCN(c3ccccc3)CC2)cc1N1[C@@H]2CC[C@H]1CN(C(=O)c1cc(F)c(F)cc1Cl)C2 [compound 051] | < 1000 |
| COc1ccc(S(=O)(=O)N2CCC(=Cc3ccccc3)CC2)cc1N1[C@@H]2CC[C@H]1CN(C(=O)c1cc(F)c(F)cc1Cl)C2 [compound 053, [(1S,5R)-8-[5-[(4-benzylidene-1-piperidyl)sulfonyl]-2-methoxy-phenyl]-3,8-diazabicyclo[3.2.1]octan-3-yl]-(2-chloro-4,5-difluoro-phenyl)methanone] | < 1000 |
| COc1ccc(S(=O)(=O)N(C)C(C)(C)C)cc1N1[C@@H]2CC[C@H]1CN(C(=O)c1cc(F)c(F)cc1Cl)C2 [compound 054, N-tert-butyl-3-[(1S,5R)-3-(2-chloro-4,5-difluoro-benzoyl)-3,8-diazabicyclo[3.2.1]octan-8-yl]-4-methoxy-N-methyl-benzenesulfonamide] | 1000 to 10000 |
| O=C(c1ccc(F)cc1Cl)N1C[C@H]2CC[C@@H](C1)N2c1cc(S(=O)(=O)N2CCC(c3ccccc3)CC2)cc2c1OCC2 [compound 055, (2-chloro-4-fluoro-phenyl)-[(1S,5R)-8-[5-[(4-phenyl-1-piperidyl)sulfonyl]-2,3-dihydrobenzofuran-7-yl]-3,8-diazabicyclo[3.2.1]octan-3-yl]methanone] | < 1000 |
| O=C(c1ccc(F)cc1Cl)N1C[C@H]2CC[C@@H](C1)N2c1cc(S(=O)(=O)N2CCC(c3ccc(F)cc3)CC2)cc2c1OCC2 [compound 056, (2-chloro-4-fluoro-phenyl)-[(1S,5R)-8-[5-[[4-(4-fluorophenyl)-1-piperidyl]sulfonyl]-2,3-dihydrobenzofuran-7-yl]-3,8-diazabicyclo[3.2.1]octan-3-yl]methanone] | < 1000 |
| CC(C)(C)NS(=O)(=O)c1cc2c(c(N3[C@@H]4CC[C@H]3CN(C(=O)c3ccc(F)cc3Cl)C4)c1)OCC2 [compound 057, N-tert-butyl-7-[(1S,5R)-3-(2-chloro-4-fluoro-benzoyl)-3,8-diazabicyclo[3.2.1]octan-8-yl]-2,3-dihydrobenzofuran-5-sulfonamide] | < 1000 |
| CN(CC1CC1)S(=O)(=O)c1cc2c(c(N3[C@@H]4CC[C@H]3CN(C(=O)c3ccc(F)cc3Cl)C4)c1)OCC2 [compound 058, 7-[(1S,5R)-3-(2-chloro-4-fluoro-benzoyl)-3,8-diazabicyclo[3.2.1]octan-8-yl]-N-(cyclopropylmethyl)-N-methyl-2,3-dihydrobenzofuran-5-sulfonamide] | 1000 to 10000 |
| O=C(c1ccc(F)cc1Cl)N1C[C@H]2CC[C@@H](C1)N2c1cc(S(=O)(=O)N2CCN(CCc3ccc(F)cc3)CC2)cc2c1OCC2 [compound 059, (2-chloro-4-fluoro-phenyl)-[(1S,5R)-8-[5-[4-[2-(4-fluorophenyl)ethyl]piperazin-1-yl]sulfonyl-2,3-dihydrobenzofuran-7-yl]-3,8-diazabicyclo[3.2.1]octan-3-yl]methanone] | < 1000 |
| O=C(c1ccc(F)cc1Cl)N1C[C@H]2CC[C@@H](C1)N2c1cc(S(=O)(=O)N2CCN(CCc3ccc(Cl)cc3)CC2)cc2c1OCC2 [compound 060, (2-chloro-4-fluoro-phenyl)-[(1S,5R)-8-[5-[4-[2-(4-chlorophenyl)ethyl]piperazin-1-yl]sulfonyl-2,3-dihydrobenzofuran-7-yl]-3,8-diazabicyclo[3.2.1]octan-3-yl]methanone] | < 1000 |
| O=C(c1cc(F)c(F)cc1Cl)N1C[C@H]2CC[C@@H](C1)N2c1cc(S(=O)(=O)N2CCC(c3ccccc3)CC2)cc2c1OCC2 [compound 061, (2-chloro-4,5-difluoro-phenyl)-[(1S,5R)-8-[5-[(4-phenyl-1-piperidyl)sulfonyl]-2,3-dihydrobenzofuran-7-yl]-3,8-diazabicyclo[3.2.1]octan-3-yl]methanone] | < 1000 |
| O=C(c1ccc(F)cc1Cl)N1C[C@H]2CC[C@@H](C1)N2c1cc(S(=O)(=O)N2CCC(CCc3ccccc3)CC2)ccc1O [compound 062] | < 1000 |
| O=C(c1ccc(F)cc1Cl)N1C[C@H]2CC[C@@H](C1)N2c1cc(S(=O)(=O)N2CCC(c3ccccc3)CC2)ccc1O [compound 063, (2-chloro-4-fluoro-phenyl)-[(1S,5R)-8-[2-hydroxy-5-[(4-phenyl-1-piperidyl)sulfonyl]phenyl]-3,8-diazabicyclo[3.2.1]octan-3-yl]methanone] | < 1000 |
| O=C(c1ccc(F)cc1Cl)N1C[C@H]2CC[C@@H](C1)N2c1cc(S(=O)(=O)N2CCN(CCc3ccc(Cl)cc3)CC2)ccc1O [compound 064, (2-chloro-4-fluoro-phenyl)-[(1S,5R)-8-[5-[4-[2-(4-chlorophenyl)ethyl]piperazin-1-yl]sulfonyl-2-hydroxy-phenyl]-3,8-diazabicyclo[3.2.1]octan-3-yl]methanone] | < 1000 |
| O=C(c1ccc(F)cc1Cl)N1C[C@H]2CC[C@@H](C1)N2c1cc(S(=O)(=O)N2CCC(c3ccc(F)cc3)CC2)ccc1O [compound 065, (2-chloro-4-fluoro-phenyl)-[(1S,5R)-8-[5-[[4-(4-fluorophenyl)-1-piperidyl]sulfonyl]-2-hydroxy-phenyl]-3,8-diazabicyclo[3.2.1]octan-3-yl]methanone] | < 1000 |
| O=C(c1ccc(F)cc1Cl)N1C[C@H]2CC[C@@H](C1)N2c1cc(S(=O)(=O)N2CCC(c3ccccc3)CC2)ccc1Cl [compound 066, (2-chloro-4-fluoro-phenyl)-[(1S,5R)-8-[2-chloro-5-[(4-phenyl-1-piperidyl)sulfonyl]phenyl]-3,8-diazabicyclo[3.2.1]octan-3-yl]methanone] | < 1000 |
| Cc1ccc(S(=O)(=O)N2CCC(c3ccccc3)CC2)cc1N1[C@@H]2CC[C@H]1CN(C(=O)c1ccc(F)cc1Cl)C2 [compound 067, (2-chloro-4-fluoro-phenyl)-[(1S,5R)-8-[2-methyl-5-[(4-phenyl-1-piperidyl)sulfonyl]phenyl]-3,8-diazabicyclo[3.2.1]octan-3-yl]methanone] | < 1000 |
| CCCN(C)S(=O)(=O)c1ccc(C)c(N2[C@@H]3CC[C@H]2CN(C(=O)c2ccc(F)cc2Cl)C3)c1 [compound 068, 3-[(1S,5R)-3-(2-chloro-4-fluoro-benzoyl)-3,8-diazabicyclo[3.2.1]octan-8-yl]-N,4-dimethyl-N-propyl-benzenesulfonamide] | < 1000 |
| COC(=O)c1ccc(S(=O)(=O)N2CCC(c3ccccc3)CC2)cc1N1[C@@H]2CC[C@H]1CN(C(=O)c1ccc(F)cc1Cl)C2 [compound 069, methyl 2-[(1S,5R)-3-(2-chloro-4-fluoro-benzoyl)-3,8-diazabicyclo[3.2.1]octan-8-yl]-4-[(4-phenyl-1-piperidyl)sulfonyl]benzoate] | < 1000 |
| O=C(c1ccc(F)cc1Cl)N1C[C@H]2CC[C@@H](C1)N2c1cc(S(=O)(=O)N2CCC(c3ccccc3)CC2)ccc1CO [compound 070, (2-chloro-4-fluoro-phenyl)-[(1S,5R)-8-[2-(hydroxymethyl)-5-[(4-phenyl-1-piperidyl)sulfonyl]phenyl]-3,8-diazabicyclo[3.2.1]octan-3-yl]methanone] | < 1000 |
| O=C(O)c1ccc(S(=O)(=O)N2CCC(c3ccccc3)CC2)cc1N1[C@@H]2CC[C@H]1CN(C(=O)c1ccc(F)cc1Cl)C2 [compound 071, 2-[(1S,5R)-3-(2-chloro-4-fluoro-benzoyl)-3,8-diazabicyclo[3.2.1]octan-8-yl]-4-[(4-phenyl-1-piperidyl)sulfonyl]benzoic acid] | < 1000 |
